From patent US9255100B2 (BAYER INTELLECTUAL PROPERTY GMBH, priority 2010, dated 2016)

Target: T1, N-terminally GST-tagged human full length recombinant Mps-1 kinase (Homo sapiens, UniProt P33981)
T1 construct: N-terminally GST-tagged human full length recombinant Mps-1 kinase; purchased Invitrogen, Karslruhe, Germany PV4071
T1 sequence (P33981 1-857): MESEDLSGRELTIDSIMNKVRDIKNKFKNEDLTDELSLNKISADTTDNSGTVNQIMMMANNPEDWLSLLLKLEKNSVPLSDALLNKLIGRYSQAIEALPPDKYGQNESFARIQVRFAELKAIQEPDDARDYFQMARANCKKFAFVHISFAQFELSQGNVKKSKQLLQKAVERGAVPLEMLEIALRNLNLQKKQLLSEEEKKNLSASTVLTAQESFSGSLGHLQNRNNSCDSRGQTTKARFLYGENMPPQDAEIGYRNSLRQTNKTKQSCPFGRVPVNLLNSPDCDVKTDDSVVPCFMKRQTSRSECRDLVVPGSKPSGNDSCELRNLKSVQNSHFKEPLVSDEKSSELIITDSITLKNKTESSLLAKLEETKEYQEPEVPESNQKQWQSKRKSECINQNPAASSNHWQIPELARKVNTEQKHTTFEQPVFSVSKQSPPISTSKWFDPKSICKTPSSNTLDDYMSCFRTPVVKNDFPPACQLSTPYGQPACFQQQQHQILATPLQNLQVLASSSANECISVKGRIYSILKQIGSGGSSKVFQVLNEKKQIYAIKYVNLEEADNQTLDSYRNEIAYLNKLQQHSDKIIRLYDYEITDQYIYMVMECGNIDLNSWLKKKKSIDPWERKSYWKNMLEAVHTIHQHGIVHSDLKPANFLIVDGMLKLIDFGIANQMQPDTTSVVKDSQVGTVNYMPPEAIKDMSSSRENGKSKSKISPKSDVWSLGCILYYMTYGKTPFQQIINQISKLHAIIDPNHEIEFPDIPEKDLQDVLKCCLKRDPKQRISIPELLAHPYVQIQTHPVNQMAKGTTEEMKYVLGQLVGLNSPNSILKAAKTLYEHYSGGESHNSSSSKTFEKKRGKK
Assay: Mps-1 kinase assay (TR-FRET)
Type: biochemical
Conditions: Mps1 IC50 [nM], 10 μM ATP, 1 μM peptide substrate, 60 min at 22° C.
Procedure, shortened: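 Read-out: TR-FRET from Europium-labelled anti-phospho(Ser/Thr) antibody to SA-XLent after 1 h detection incubation at 22° C. Inhibition of kinase activity measured.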

IC50 | SMILES
0.1 nM | Cc1cc(-c2cnc3c(NCC4COC4)cc(Oc4cccc(F)c4)nn23)ccc1C(=O)NC1CC1 [Example 495, N-cyclopropyl-4-{6-(3-fluoro-phenoxy)-8-[(oxetan-3-ylmethyl)amino]imidazo[1,2-b]pyridazin-3-yl}-2-methylbenzamide]
2.3 nM | CC(C)CNc1cc(-c2ccc3ncccc3c2)nn2c(-c3ccc(C(=O)NC4CC4)cc3)cnc12 [Example 144, N-cyclopropyl-4-{8-[(2-methylpropyl)amino]-6-(quinolin-6-yl)imidazo [1,2-b]pyridazin-3-yl} benzamide]
0.3 nM | Cc1ccc(Cl)cc1Nc1cc(NCCC(F)(F)F)c2ncc(-c3ccc(C(=O)NC4CC4)c(C)c3)n2n1 [Example 377, 4-{6-[(5-chloro-2-methylphenyl)amino]-8-[(3,3,3-trifluoropropyl)amino]imidazo[1,2-b]pyridazin-3-yl}-N-cyclopropyl-2-methylbenzamide]
0.1 nM | COc1ccc(Oc2cc(NCCS(C)(=O)=O)c3ncc(-c4ccc(C(=O)NC5CC5)c(C)c4)n3n2)c(F)c1 [Example 519, N-cyclopropyl-4-[6-(2-fluoro-4-methoxyphenoxy)-8-{[2-(methylsulfonyl)ethyl]amino]imidazo [1,2-b]pyridazin-3-yl]-2-methylbenzamide]
0.1 nM | Cc1cc(-c2cnc3c(NCCC(F)(F)F)cc(Nc4ccccc4O)nn23)ccc1C(=O)NC1CC1 [Example 399, N-cyclopropyl-4-{6-[(2-hydroxyphenyl)amino]-8-[(3,3,3-trifluoropropyl)amino]imidazo[1,2-b]pyridazin-3-yl}-2-methylbenzamide]
5.1 nM | Cc1cc(-c2cnc3c(NCC(C)(C)O)cc(-c4cccnc4)nn23)ccc1C(=O)NC1CC1 [Example 156, N-cyclopropyl-4-{8-[(2-hydroxy-2-methylpropyl)amino]-6-(pyridin-3-yl)imidazo[1,2-b]pyridazin-3-yl}-2-methylbenzamide]
1.1 nM | CCNC(=O)c1ccc(-c2cnc3c(NCC4CCOCC4)cc(Oc4ccc(OC)cc4)nn23)cc1C [Example 597, N-ethyl-4-{6-(4-methoxyphenoxy)-8-[(tetrahydro-2H-pyran-4-ylmethyl)a-mino]imidazo[1,2-b]pyridazin-3-yl}-2-methylbenzamide]
0.3 nM | Cc1cc(-c2cnc3c(NCC4CCSCC4)cc(Sc4cccc(O)c4)nn23)ccc1C(=O)NC1CC1 [Example 287, N-cyclopropyl-4-{6-[(3-hydroxyphenyl)sulfanyl]-8-[(tetrahydro-2H-thiopyran-4-ylmethyl)amino]imidazo[1,2-b]pyridazin-3-yl}-2-methylbenzamide]
0.1 nM | Cc1cc(-c2cnc3c(NCCC(C)(C)O)cc(Oc4cccc(F)c4)nn23)ccc1C(=O)NC1CC1 [Example 325, N-cyclopropyl-4-{6-(3-fluorophenoxy)-8-[(3-hydroxy-3-methylbutyl)amino]imidazo[1,2-b]pyridazin-3-yl}-2-methyl-benzamide]
0.3 nM | Cc1cc(-c2cnc3c(NCCC(F)(F)F)cc(Sc4ccc(F)cc4)nn23)ccc1C(=O)NC1CC1 [Example 250, N-cyclopropyl-4-{6-[(4-fluorophenyl)sulfanyl]-8-[(3,3,3-trifluoropropyl)amino]imidazo[1,2-b]pyridazin-3-yl}-2-methylbenzamide]
0.2 nM | Cc1cc(-c2cnc3c(NCCCN4CCCC4)cc(Oc4cccc(F)c4)nn23)ccc1C(=O)NC1CC1 [Example 507, N-cyclopropyl-4-[6-(3-fluoro-phenoxy)-8-{[3-(pyrrolidin-1-yl)propyl]amino}imidazo[1,2-b]pyridazin-3-yl]-2-methyl-benzamide]
10.6 nM | Cc1cc(-c2cnc3c(NCCC(C)(C)O)cc(-c4ccccc4CO)nn23)ccc1C(=O)NC1CC1 [Example 341, N-cyclopropyl-4-{8-[(3-hydroxy-3-methylbutyl)amino]-6-[2-(hydroxy-methyl)phenyl]imidazo[1,2-b]pyridazin-3-yl}-2-methylbenzamide]
